Reference: patent US20120156216A1, “Methods and Compositions for Treatment of Tumor Metastasis” (priority 2009, published 2012)

Columns and labels:
[1] = general statement on statins; cited from earlier work
[2] = system: radiation-induced CTGF in M12 prostate cancer cells; assay: Radiation-induced CTGF expression in M12 prostate cancer cells; format: cell-based, human; conditions: 1 μM, four days, FIG. 9A
Source text: In an effort to determine the mechanism of radiation-induced adverse effects, such as radio-resistance and increased potential of metastasis in human cancer, M12 prostate cancer cells and BEAS-2B-CSC lung cancer cells were exposed to increasing amounts of radiation, ranging from 0 to 10 Grays (Gy). To detect protein expression for CTGF and CTGF-regulated protein fibronectin, M12 and BEAS-2B-CSC cells were harvested 3 days after irradiation, and culture media (CM) and cell lysates (CL) were separated by SDS-PAGE. Western immunoblotting was performed with antibodies specific for CTGF, fibronectin, and α-tubulin. […] As a control for protein loading, α-tubulin expression was also determined.
The ability of statins to inhibit radiation-induced CTGF expression was assessed in M12 prostate cancer cells and BEAS-2B-CSC lung cancer cells.

[3] = system: CTGF in M12 prostate cancer cells; assay: Suppression of endogenous CTGF by statins in M12 prostate cancer cells; format: cell-based, human; conditions: 1 μM, four days, FIG. 3A
Source text: The effect of statins on the TGF-β- and CTGF-induced EMT in prostate cancer cells was further tested. Several stains are available with different pharmacokinetics and biotransformation rates. […] The hydrophilic statins are absorbed preferentially by the liver, where they inhibit production of cholesterol. More lipophilic statins are readily distributed to sites beyond the liver, where they inhibit intracellular synthesis of cholesterol. These different pharmacokinetic properties of statins may greatly influence effectiveness against advanced prostate cancer in vivo.

[4] = system: CTGF in MDA 231 breast cancer cells; assay: Suppression of endogenous CTGF by statins in MDA 231 breast cancer cells; format: cell-based, human; conditions: 1 μM, four days, FIG. 3B
[5] = system: EMT markers in M12 prostate cancer cells; assay: CTGF-induced (AdCTGF) EMT marker expression in M12 prostate cancer cells, RT-PCR and Western immunoblot; format: cell-based, human
Source text: In order to identify direct effect of CTGF on EMT induction in human cancer, an adenoviral expression vector was used. M12 (FIGS. 5 A-B) and M2182 (FIGS. 5 C-D) prostate cancer cells were infected with either an empty adenoviral constructs or an adenoviral vector expressing CTGF (AdCTGF) for either 18 hrs or 2 days to collect total RNAs for RT-PCR (FIGS. 5 A and C) and proteins for Western immunoblot analysis (FIGS. 5 B and D), respectively.
M12 (FIGS. 6 A-B) and M2182 (FIGS. 6 C-D) prostate cancer cells were infected with either an empty adenoviral construct (ADEV) or an adenoviral vector expressing CTGF (AdCTGF) for either 18 hrs or 2 days to collect total RNAs for RT-PCR (FIGS. 5 A and C) or proteins for Western immunoblot analysis (FIGS. 5 B and D), respectively.

[6] = system: CTGF and fibronectin in normal immortalized human lung fibroblasts; assay: Basal and TGF-β1-induced CTGF and fibronectin expression in stromal fibroblasts; format: cell-based
[7] = stromal cells treated with TGF-β1 0 ng/ml to 25 ng/ml, 3 days, Western immunoblot, FIG. 4A

Molecule	solubility (fat soluble or water soluble) [1]	suppression of radiation-induced CTGF expression [2]	suppression of CTGF [3]	suppression of CTGF [4]	further results
CC(C)n1c(/C=C/[C@@H](O)C[C@@H](O)CC(=O)O)c(-c2ccc(F)cc2)c2ccccc21 (relative stereo) [fluvastatin, (3R,5S,6E)-rel-7-[3-(4-fluorophenyl)-1-(1-methylethyl)-1H-indol-2-yl]-3,5--dihydroxy-6-heptenoic acid]	more fat soluble	–	–	–	–
CC[C@H](C)C(=O)O[C@H]1C[C@@H](C)C=C2C=C[C@H](C)[C@H](CC[C@@H]3C[C@@H](O)CC(=O)O3)[C@H]21 [lovastatin, 2(S)-2-methyl-butanoic acid (1S,3R,7S,8S,8aR)-1,2,3,7,8,8a-hexahydro-3,7-dimethyl-8-[2-[(2R,4R)-tetrahydro-4-hydroxy-6-oxo-2H-pyran-2-yl]ethyl]-1-na-phthalenyl ester]	more fat soluble	significant suppression	significant suppression	significant suppression	–
CCC(C)C(=O)OC1CCC=C2C=C[C@H](C)[C@H](CC[C@@H]3CC(O)CC(=O)O3)[C@H]21 (stereo partly drawn) [mevastatin, ((1S,7S,8S,8aR)-8-{2-[(2R,4R)-4-hydroxy-6-oxotetrahydro-2H-pyran-2-yl]ethyl}-7-methyl-1,2,3,7,8,8a-hexahydronaphthalen-1-yl (2S)-2-methylbutanoate);]	more water soluble	–	–	–	–
CC[C@H](C)C(=O)O[C@H]1C[C@H](O)C=C2C=C[C@H](C)[C@H](CC[C@@H](O)C[C@@H](O)CC(=O)O)[C@H]21 [pravastatin]	more water soluble	significant suppression	significant suppression	significant suppression	–
CCC(C)(C)C(=O)O[C@H]1C[C@@H](C)C=C2C=C[C@H](C)[C@H](CC[C@@H]3C[C@@H](O)CC(=O)O3)[C@H]21 [simvastatin, 2,2-dimethyl-butanoic acid (1S,3R,7S,8S,8aR)-1,2,3,7,8,8a-hexahydro-3,7-dimethyl-8-[2-[(2R,4R)-tetrahydro-4-hydroxy-6-oxo-2H-pyran-2-yl]ethyl]-1-naphthalenyl ester]	–	–	significant suppression	significant suppression	epithelial marker E-cadherin expression ([5]; M12 cells, AdCTGF, 5 μM simvastatin, mRNA level and protein level, FIGS. 6 A-B): increase; adenoviral transduced IGFBP-rP2/CTGF expression ([5]; prostate cancer cells, simvastatin at concentrations, 2 μM, 4 μM, 5 μM): did not affect; basal CTGF expression ([6]; stromal fibroblasts, simvastatin 0.1 μM to 2.0 μM, 20 hours, semi-quantitative RT-PCR, FIG. 4B): suppression
TGF-β1: transforming growth factor beta, potent inducer of CTGF, used to treat stromal fibroblasts	–	–	–	–	production of CTGF ([6]; TGF-β1 at 10 ng/ml, FIG. 4A): robust production; expression of CTGF [6, 7]: significantly increased; expression of fibronectin [6, 7]: significantly increased
